Where “and” joins values, the source holds several entries; their conditions need not be identical. Equal values may be shown once.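 Each compound was tested at five concentrations against cells in 96-well plates for 48 hours. GI50 marks 50% less growth. Definition used: TGI = concentration required for complete inhibition of growth.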
Tests used:
Experiment in all cases: NCI anticancer screen, dose series, 48 h
NCI-H226 lung = tested on: NCI-H226 lung
MALME-3M melanoma = tested on: MALME-3M melanoma
IGROV1 ovarian = tested on: IGROV1 ovarian
SR leukemia = tested on: SR leukemia
SF-295 CNS = tested on: SF-295 CNS
SK-MEL-5 melanoma = tested on: SK-MEL-5 melanoma
SK-MEL-2 melanoma = tested on: SK-MEL-2 melanoma
KM12 colon = tested on: KM12 colon

## C=CCn1c2c(sc1=S)C(S)N=CN2 (stereo not given)
NCI-H226 lung
  TGI: > 100 µM
MALME-3M melanoma
  TGI: > 100 µM
IGROV1 ovarian
  TGI: > 100 µM
SR leukemia
  TGI: > 100 µM
SF-295 CNS
  TGI: > 100 µM
SK-MEL-5 melanoma
  TGI: > 100 µM
SK-MEL-2 melanoma
  TGI: > 100 µM
KM12 colon
  TGI: > 100 µM

## N#CC(C(=O)CCC(=O)Nc1cccc(C(F)(F)F)c1)c1ccc(Cl)cc1 (stereo not given)
NCI-H226 lung
  TGI: > 100 µM
MALME-3M melanoma
  TGI: > 100 µM
IGROV1 ovarian
  TGI: > 100 µM
SF-295 CNS
  TGI: > 100 µM
SK-MEL-5 melanoma
  TGI: > 100 µM
KM12 colon
  TGI: > 100 µM

## CC(C)(C)OC(=O)N1N=NC2C1C1CC(OCc3ccccc3)(OCc3ccccc3)C2O1 (stereo not given)
NCI-H226 lung
  TGI: 55.4 µM
MALME-3M melanoma
  TGI: > 100 µM
IGROV1 ovarian
  TGI: > 100 µM
SF-295 CNS
  TGI: > 100 µM
SK-MEL-5 melanoma
  TGI: 32.6 µM
SK-MEL-2 melanoma
  TGI: > 100 µM
KM12 colon
  TGI: > 100 µM

## CCOC(=O)Cn1c(=O)n(C)c(=O)c2c1ncn2Cc1ccccc1
NCI-H226 lung
  TGI: > 100 µM
MALME-3M melanoma
  TGI: > 100 µM
IGROV1 ovarian
  TGI: > 100 µM
SR leukemia
  TGI: > 100 µM
SK-MEL-5 melanoma
  TGI: > 100 µM
SK-MEL-2 melanoma
  TGI: > 100 µM
KM12 colon
  TGI: > 100 µM

## O=C1C(=O)N(c2cc(Cl)ccc2Cl)C(=O)C(=O)C1c1nc2ccccc2o1
MALME-3M melanoma
  TGI: > 100 µM
IGROV1 ovarian
  TGI: > 100 µM
SF-295 CNS
  TGI: > 100 µM
SK-MEL-5 melanoma
  TGI: > 100 µM
SK-MEL-2 melanoma
  TGI: > 100 µM
KM12 colon
  TGI: > 31.6 µM

## COc1cc(C2C(C(=O)Nc3cc(F)c(F)cc3F)=C(C)NC(C)=C2C(=O)Nc2cc(F)c(F)cc2F)ccc1O
NCI-H226 lung
  TGI: 79.5 µM
MALME-3M melanoma
  TGI: 74.5 µM
IGROV1 ovarian
  TGI: > 100 µM
SF-295 CNS
  TGI: 55.3 µM
SK-MEL-5 melanoma
  TGI: 53.9 µM
SK-MEL-2 melanoma
  TGI: 79.1 µM
KM12 colon
  TGI: 35.8 µM

## Oc1ccc(Br)cc1C=Nc1ccc(N=Cc2cc(Br)ccc2O)cc1
NCI-H226 lung
  TGI: > 100 µM
MALME-3M melanoma
  TGI: > 100 µM
IGROV1 ovarian
  TGI: > 100 µM
SR leukemia
  TGI: > 100 µM
SF-295 CNS
  TGI: > 100 µM
SK-MEL-5 melanoma
  TGI: > 100 µM
SK-MEL-2 melanoma
  TGI: > 100 µM
KM12 colon
  TGI: > 100 µM

## COC(=O)/C(=C\c1ccc(N(CCC#N)CCC#N)cc1)NC(=O)c1cc([N+](=O)[O-])ccc1Cl
NCI-H226 lung
  TGI: > 100 µM
MALME-3M melanoma
  TGI: > 100 µM
IGROV1 ovarian
  TGI: > 100 µM
SR leukemia
  TGI: 81.5 µM
SF-295 CNS
  TGI: > 100 µM
SK-MEL-5 melanoma
  TGI: > 100 µM
SK-MEL-2 melanoma
  TGI: > 100 µM
KM12 colon
  TGI: > 100 µM

## CCOc1ccccc1NC(=O)C(C#N)C1=C(Cl)C(=O)c2ccccc2C1=O (stereo not given)
NCI-H226 lung
  TGI: 4.49 µM and 19 µM
MALME-3M melanoma
  TGI: 2.91 µM and 3.08 µM
IGROV1 ovarian
  TGI: 5.31 µM
SR leukemia
  TGI: 3.73 µM
SF-295 CNS
  TGI: 3.13 µM and 3.19 µM
SK-MEL-5 melanoma
  TGI: 2.86 µM and 3.13 µM
SK-MEL-2 melanoma
  TGI: 3.05 µM and 3.12 µM
KM12 colon
  GI50: 2.13 µM
  TGI: 3.23 µM and 4.59 µM

## OCC(O)CNc1ccnc2cc(Cl)ccc12 (stereo not given)
NCI-H226 lung
  TGI: > 100 µM
MALME-3M melanoma
  TGI: > 100 µM
IGROV1 ovarian
  TGI: > 100 µM
SR leukemia
  TGI: > 100 µM
SF-295 CNS
  TGI: > 100 µM
SK-MEL-5 melanoma
  TGI: > 100 µM
SK-MEL-2 melanoma
  TGI: > 100 µM
KM12 colon
  TGI: > 100 µM

## Cc1cccc(C)c1NC(=O)C(=O)CC(=O)c1cccc([N+](=O)[O-])c1
NCI-H226 lung
  TGI: > 100 µM
MALME-3M melanoma
  TGI: > 100 µM
IGROV1 ovarian
  TGI: > 100 µM
SR leukemia
  TGI: > 100 µM
SF-295 CNS
  TGI: > 100 µM
SK-MEL-5 melanoma
  TGI: > 100 µM
SK-MEL-2 melanoma
  TGI: > 100 µM
KM12 colon
  TGI: > 100 µM

## Cc1cc(C(C)(C)C)cc(Cc2cc(C(C)(C)C)cc(Cc3cc(C(C)(C)C)cc(C)c3O)c2O)c1O
NCI-H226 lung
  TGI: 24.6 µM
MALME-3M melanoma
  TGI: 22.5 µM
IGROV1 ovarian
  TGI: 23.5 µM
SF-295 CNS
  TGI: 29.4 µM
SK-MEL-5 melanoma
  TGI: 21.6 µM
SK-MEL-2 melanoma
  TGI: 22.3 µM
KM12 colon
  TGI: 21.4 µM

## CCCCc1c2c(nc3c1CCC/C3=C\c1ccccc1)/C(=C/c1ccccc1)CCC2
NCI-H226 lung
  TGI: > 100 µM
MALME-3M melanoma
  TGI: > 100 µM
IGROV1 ovarian
  TGI: > 100 µM
SR leukemia
  TGI: > 100 µM
SF-295 CNS
  TGI: > 100 µM
SK-MEL-5 melanoma
  TGI: > 100 µM
KM12 colon
  TGI: > 100 µM

## CC(=O)OC1C2CCC1C1C2C2(Cl)C(Cl)=C(Cl)C1(Cl)C2(Cl)Cl (stereo not given)
NCI-H226 lung
  TGI: 26.7 µM
MALME-3M melanoma
  TGI: 27.1 µM
IGROV1 ovarian
  TGI: 36 µM
SR leukemia
  TGI: 24.6 µM
SF-295 CNS
  TGI: 23.7 µM
SK-MEL-5 melanoma
  TGI: 26 µM
SK-MEL-2 melanoma
  TGI: 22.2 µM
KM12 colon
  TGI: 27.6 µM

## COc1cc(C(=O)C/C(CCC(=O)Nc2ccc(Cl)cc2Cl)=N/NC(=O)C(=O)NN)ccc1O
NCI-H226 lung
  TGI: > 100 µM
MALME-3M melanoma
  TGI: > 100 µM
IGROV1 ovarian
  TGI: > 100 µM
SF-295 CNS
  TGI: > 100 µM
SK-MEL-5 melanoma
  TGI: > 100 µM
KM12 colon
  TGI: > 100 µM

## Clc1cc(Cl)cc(Nc2ccc3cc(OCCCN4CCOCC4)ccc3n2)c1
NCI-H226 lung
  GI50: 3.76 µM
  TGI: > 100 µM
IGROV1 ovarian
  GI50: 3.47 µM
  TGI: > 100 µM
SF-295 CNS
  GI50: 1.66 µM
  TGI: 3.65 µM
SK-MEL-5 melanoma
  GI50: 1.71 µM
  TGI: 3.13 µM
SK-MEL-2 melanoma
  GI50: 2.7 µM
  TGI: 6.97 µM
KM12 colon
  GI50: 2.23 µM
  TGI: 5.4 µM

## c1ccc(CSc2nc3ccccc3nc2-c2cccs2)cc1
NCI-H226 lung
  TGI: > 100 µM
MALME-3M melanoma
  TGI: > 100 µM
IGROV1 ovarian
  TGI: > 100 µM
SF-295 CNS
  TGI: > 100 µM
SK-MEL-5 melanoma
  TGI: > 100 µM
SK-MEL-2 melanoma
  TGI: > 100 µM
KM12 colon
  TGI: > 100 µM

## CC1CN1c1c(C(=O)/C=C/c2ccc(Cl)cc2)c(-c2ccccc2)nn(C)c1=O (stereo not given)
NCI-H226 lung
  TGI: > 10 µM
MALME-3M melanoma
  TGI: > 10 µM
IGROV1 ovarian
  TGI: 8.68 µM
SF-295 CNS
  TGI: > 10 µM
SK-MEL-2 melanoma
  TGI: 5.8 µM
KM12 colon
  TGI: > 10 µM

## CC(C(=O)n1c2ccccc2c2ccccc21)N(c1ccccc1)c1ccccc1 (stereo not given)
NCI-H226 lung
  TGI: 47.7 µM
MALME-3M melanoma
  TGI: 28.5 µM
IGROV1 ovarian
  TGI: 32.6 µM
SR leukemia
  TGI: 27.7 µM
SF-295 CNS
  TGI: 37.1 µM
SK-MEL-5 melanoma
  TGI: 35.1 µM
SK-MEL-2 melanoma
  TGI: 28.4 µM

## CC1=C(c2cc(C(=O)Nc3ccc(Cl)cc3)nc(=S)[nH]2)Sc2ccccc2N1
MALME-3M melanoma
  TGI: > 100 µM
IGROV1 ovarian
  TGI: > 100 µM
SF-295 CNS
  TGI: > 100 µM
SK-MEL-5 melanoma
  TGI: > 100 µM
SK-MEL-2 melanoma
  TGI: > 100 µM
KM12 colon
  TGI: > 100 µM

## O=C(O)CN(c1ccccc1)S(=O)(=O)c1ccc([N+](=O)[O-])cc1
NCI-H226 lung
  TGI: > 100 µM
MALME-3M melanoma
  TGI: > 100 µM
IGROV1 ovarian
  TGI: > 100 µM
SF-295 CNS
  TGI: > 100 µM
SK-MEL-5 melanoma
  TGI: > 100 µM
SK-MEL-2 melanoma
  TGI: > 100 µM
KM12 colon
  TGI: > 100 µM

Source: PubChem BioAssay (NCI)
